Measurements from patent US20110014178A1 (priority 2002, published 2011).

Columns and labels:
[1] = target: phospholipase C (alpha toxin produced by Clostridium perfringens) (Clostridium perfringens, UniProt P0C216); settings: cited from earlier work
C. perfringens = assay type: in vivo, broiler chicks; settings: 50 g/t in feed, challenged
Clostridium perfringens = assay type: cell-based; settings: FIC plates

In the case of O=C(O)CN(CCN(CC(=O)O)CC(=O)O)CC(=O)O [EDTA], the “effect on enzymatic activity of phospholipase C” value [1] is listed as “direct inhibitory effect”.

In the case of bacitracin methylene disalicylate [BMD], the “Feed Consum.” value (C. perfringens) is reported as 14.000, the “Feed Conv.” value (C. perfringens) is reported as 1.659 and the “NE Mort.” value (C. perfringens) is reported as 2. The “Wt. Gain D 5 to D 14” value (C. perfringens) was 0.252 kg, the “Wt. Gain D 5 to D 27” value (C. perfringens) was 0.946 kg and the “Wt. Gain D 14 to D 27” value (C. perfringens) was 0.694 kg. The “Lesion Score (0 to 3) Day 22” value (C. perfringens; 0 normal, 3 most severe) was 0.0 and the “Lesion Score (0 to 3) Day 27” value (C. perfringens; 0 normal, 3 most severe) was 0.3.

In the case of lysozyme, the lysozyme effective alone (Clostridium perfringens; 100 times dilution of overnight culture, no nisin) is listed as “approximately 120 ppm”, the “lysozyme required to achieve a bactericidal effect” value (Clostridium perfringens; in combination with nisin 3 ppm) is listed as 8 ppm and the “effect on enzymatic activity of phospholipase C” value [1] is listed as “direct inhibitory effect”.
